# PubChem BioAssay AID1918954 (Molecular Pharmacology Branch, DTP, NCI, 2023)
# System: MDA-MB-468 complex spheroids with HUVEC/MSC, viability
# Test: Anticancer human tumor MDA-MB-468 cell line growth inhibition;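 also: spheroids exposed to agents for seven days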;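 as to viability, T/C: 100% = DMSO vehicle control viability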
# Details: for IC50: curve of first compound; for viability, T/C: stronger effect = lower value
# Outline: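 Drug combinations with the LSD1 inhibitor iadademstat tested on tumor cells co-cultured as spheroids with endothelial cells and mesenchymal stem cells. Concentrations descended in half-log increments from clinical Cmax or 10 microM.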
# [1] = second compound 0.1 µM, first compound 0.0316 µM
# [2] = second compound 0.1 µM, first compound 0.1 µM
# [3] = second compound 0.1 µM, first compound 0.316 µM
# [4] = second compound 0.1 µM, first compound 1 µM
# [5] = second compound 0.1 µM, first compound 3.16 µM
# [6] = second compound 0.1 µM, first compound 10 µM
# [7] = second compound 0.316 µM, first compound 0.0316 µM
# [8] = second compound 0.316 µM, first compound 0.1 µM
# [9] = second compound 0.316 µM, first compound 0.316 µM
# [10] = second compound 0.316 µM, first compound 1 µM
# [11] = second compound 0.316 µM, first compound 3.16 µM
# [12] = second compound 0.316 µM, first compound 10 µM
# [13] = second compound 1 µM, first compound 0.0316 µM
# [14] = second compound 1 µM, first compound 0.1 µM
# [15] = second compound 1 µM, first compound 0.316 µM
# [16] = second compound 1 µM, first compound 1 µM
# [17] = second compound 1 µM, first compound 3.16 µM
# [18] = second compound 1 µM, first compound 10 µM
# [19] = second compound 3.16 µM, first compound 0.0316 µM
# [20] = second compound 3.16 µM, first compound 0.1 µM
# [21] = second compound 3.16 µM, first compound 0.316 µM
# [22] = second compound 3.16 µM, first compound 1 µM
# [23] = second compound 3.16 µM, first compound 3.16 µM
# [24] = second compound 3.16 µM, first compound 10 µM
# [25] = second compound 10 µM, first compound 0.0316 µM
# [26] = second compound 10 µM, first compound 0.1 µM
# [27] = second compound 10 µM, first compound 0.316 µM
# [28] = second compound 10 µM, first compound 1 µM
# [29] = second compound 10 µM, first compound 3.16 µM
# [30] = second compound 10 µM, first compound 10 µM
# [31] = second compound 0.1 µM, first compound 0.00949 µM
# [32] = second compound 0.1 µM, first compound 0.03 µM
# [33] = second compound 0.1 µM, first compound 0.0949 µM
# [34] = second compound 0.1 µM, first compound 0.3 µM
# [35] = second compound 0.316 µM, first compound 0.00949 µM
# [36] = second compound 0.316 µM, first compound 0.03 µM
# [37] = second compound 0.316 µM, first compound 0.0949 µM
# [38] = second compound 0.316 µM, first compound 0.3 µM
# [39] = second compound 1 µM, first compound 0.00949 µM
# [40] = second compound 1 µM, first compound 0.03 µM
# [41] = second compound 1 µM, first compound 0.0949 µM
# [42] = second compound 1 µM, first compound 0.3 µM
# [43] = second compound 3.16 µM, first compound 0.00949 µM
# [44] = second compound 3.16 µM, first compound 0.03 µM
# [45] = second compound 3.16 µM, first compound 0.0949 µM
# [46] = second compound 3.16 µM, first compound 0.3 µM
# [47] = second compound 10 µM, first compound 0.00949 µM
# [48] = second compound 10 µM, first compound 0.03 µM
# [49] = second compound 10 µM, first compound 0.0949 µM
# [50] = second compound 10 µM, first compound 0.3 µM
structure (smiles),measurement,setting,value
CC1(C)CCC(CN2CCN(c3ccc(C(=O)NS(=O)(=O)c4ccc(NCC5CCOCC5)c([N+](=O)[O-])c4)c(Oc4cnc5[nH]ccc5c4)c3)CC2)=C(c2ccc(Cl)cc2)C1 + NC1CC1c1ccc(-c2cccc(O)c2)cc1,IC50,second compound 0.1 µM,1820 nM
same,IC50,second compound 0.316 µM,1700 nM
same,IC50,second compound 1 µM,1830 nM
same,IC50,second compound 3.16 µM,1550 nM
same,IC50,second compound 10 µM,509 nM
same,"viability, T/C",[1],106%
same,"viability, T/C",[2],90.4%
same,"viability, T/C",[3],96.9%
same,"viability, T/C",[4],72.7%
same,"viability, T/C",[5],29%
same,"viability, T/C",[6],2.15%
same,"viability, T/C",[7],90.3%
same,"viability, T/C",[8],108%
same,"viability, T/C",[9],94.4%
same,"viability, T/C",[10],64.7%
same,"viability, T/C",[11],30.9%
same,"viability, T/C",[12],1.99%
same,"viability, T/C",[13],93.7%
same,"viability, T/C",[14],101%
same,"viability, T/C",[15],88.6%
same,"viability, T/C",[16],75.8%
same,"viability, T/C",[17],27.4%
same,"viability, T/C",[18],2.31%
same,"viability, T/C",[19],91.2%
same,"viability, T/C",[20],83.1%
same,"viability, T/C",[21],92.1%
same,"viability, T/C",[22],64%
same,"viability, T/C",[23],24.5%
same,"viability, T/C",[24],1.95%
same,"viability, T/C",[25],78.5%
same,"viability, T/C",[26],67.7%
same,"viability, T/C",[27],59.9%
same,"viability, T/C",[28],38.5%
same,"viability, T/C",[29],16.8%
same,"viability, T/C",[30],1.82%
CC1COCCN1c1cc(C2(S(C)(=N)=O)CC2)nc(-c2ccnc3[nH]ccc23)n1 (stereo not given) + NC1CC1c1ccc(-c2cccc(O)c2)cc1,IC50,second compound 0.1 µM,714 nM
same,IC50,second compound 0.316 µM,771 nM
same,IC50,second compound 1 µM,613 nM
same,IC50,second compound 3.16 µM,603 nM
same,IC50,second compound 10 µM,189 nM
same,"viability, T/C",[1],80%
same,"viability, T/C",[2],88.2%
same,"viability, T/C",[3],65.3%
same,"viability, T/C",[4],42.1%
same,"viability, T/C",[5],22%
same,"viability, T/C",[6],9.29%
same,"viability, T/C",[7],95.1%
same,"viability, T/C",[8],104%
same,"viability, T/C",[9],62.3%
same,"viability, T/C",[10],47.7%
same,"viability, T/C",[11],20.8%
same,"viability, T/C",[12],7.91%
same,"viability, T/C",[13],95.3%
same,"viability, T/C",[14],80.5%
same,"viability, T/C",[15],69.5%
same,"viability, T/C",[16],36.2%
same,"viability, T/C",[17],17.8%
same,"viability, T/C",[18],7.07%
same,"viability, T/C",[19],96.4%
same,"viability, T/C",[20],101%
same,"viability, T/C",[21],67.1%
same,"viability, T/C",[22],34.6%
same,"viability, T/C",[23],17.9%
same,"viability, T/C",[24],7.17%
same,"viability, T/C",[25],64.4%
same,"viability, T/C",[26],59.7%
same,"viability, T/C",[27],42%
same,"viability, T/C",[28],28.8%
same,"viability, T/C",[29],15.8%
same,"viability, T/C",[30],6.83%
CCN(c1cc(-c2ccc(CN3CCOCC3)cc2)cc(C(=O)NCc2c(C)cc(C)[nH]c2=O)c1C)C1CCOCC1 + NC1CC1c1ccc(-c2cccc(O)c2)cc1,IC50,second compound 0.1 µM,219 nM
same,IC50,second compound 0.316 µM,214 nM
same,IC50,second compound 1 µM,171 nM
same,IC50,second compound 3.16 µM,171 nM
same,IC50,second compound 10 µM,69.1 nM
same,"viability, T/C",[31],98.8%
same,"viability, T/C",[32],89.1%
same,"viability, T/C",[33],64.3%
same,"viability, T/C",[34],42.8%
same,"viability, T/C","second compound 0.1 µM, first compound 0.949 µM",34.9%
same,"viability, T/C","second compound 0.1 µM, first compound 3 µM",23%
same,"viability, T/C",[35],90%
same,"viability, T/C",[36],98.7%
same,"viability, T/C",[37],62.1%
same,"viability, T/C",[38],46.3%
same,"viability, T/C","second compound 0.316 µM, first compound 0.949 µM",33.7%
same,"viability, T/C","second compound 0.316 µM, first compound 3 µM",25.8%
same,"viability, T/C",[39],82.3%
same,"viability, T/C",[40],79%
same,"viability, T/C",[41],57.2%
same,"viability, T/C",[42],41.7%
same,"viability, T/C","second compound 1 µM, first compound 0.949 µM",28.6%
same,"viability, T/C","second compound 1 µM, first compound 3 µM",22.3%
same,"viability, T/C",[43],80%
same,"viability, T/C",[44],86.1%
same,"viability, T/C",[45],61.8%
same,"viability, T/C",[46],37.5%
same,"viability, T/C","second compound 3.16 µM, first compound 0.949 µM",29.3%
same,"viability, T/C","second compound 3.16 µM, first compound 3 µM",22.1%
same,"viability, T/C",[47],76.6%
same,"viability, T/C",[48],60.4%
same,"viability, T/C",[49],46.5%
same,"viability, T/C",[50],33.7%
same,"viability, T/C","second compound 10 µM, first compound 0.949 µM",29%
same,"viability, T/C","second compound 10 µM, first compound 3 µM",22.3%
Nc1ncn(C2CC(O)C(CO)S2)c(=O)n1 (stereo not given) + NC1CC1c1ccc(-c2cccc(O)c2)cc1,IC50,second compound 0.1 µM,21.2 nM
same,IC50,second compound 0.316 µM,18.9 nM
same,IC50,second compound 1 µM,11.8 nM
same,IC50,second compound 3.16 µM,10.7 nM
same,IC50,second compound 10 µM,3.83 nM
same,"viability, T/C","second compound 0.1 µM, first compound 0.000949 µM",104%
same,"viability, T/C","second compound 0.1 µM, first compound 0.003 µM",87.9%
same,"viability, T/C",[31],56.7%
same,"viability, T/C",[32],47.2%
same,"viability, T/C",[33],31.8%
same,"viability, T/C",[34],19.5%
same,"viability, T/C","second compound 0.316 µM, first compound 0.000949 µM",84%
same,"viability, T/C","second compound 0.316 µM, first compound 0.003 µM",77.1%
same,"viability, T/C",[35],57.8%
same,"viability, T/C",[36],45.1%
same,"viability, T/C",[37],26.3%
same,"viability, T/C",[38],16.4%
same,"viability, T/C","second compound 1 µM, first compound 0.000949 µM",80.8%
same,"viability, T/C","second compound 1 µM, first compound 0.003 µM",76%
same,"viability, T/C",[39],49.6%
same,"viability, T/C",[40],35.4%
same,"viability, T/C",[41],23.9%
same,"viability, T/C",[42],13.9%
same,"viability, T/C","second compound 3.16 µM, first compound 0.000949 µM",90.4%
same,"viability, T/C","second compound 3.16 µM, first compound 0.003 µM",81.3%
same,"viability, T/C",[43],47.7%
same,"viability, T/C",[44],33%
same,"viability, T/C",[45],22.5%
same,"viability, T/C",[46],13.5%
same,"viability, T/C","second compound 10 µM, first compound 0.000949 µM",62.5%
same,"viability, T/C","second compound 10 µM, first compound 0.003 µM",53.6%
same,"viability, T/C",[47],39.1%
same,"viability, T/C",[48],29.9%
same,"viability, T/C",[49],19.8%
same,"viability, T/C",[50],13.8%
